# Where two headings read alike, the source gives them in different places.
# Experiments:
# αvβ3 integrin [1] = target: T1, αvβ3 integrin (Homo sapiens, UniProt P05106+P06756); conditions: monomer RGD peptide; cited from earlier work
# T1 construct: host or cells: U-87 MG glioblastoma cells
# Experimental: The binding affinity of 6 for αvβ3 integrin (IC50: 1.2 ± 0.5 nM) was higher than that of c[RGDf(4-I)K] […] It was reported that IC50 values of dimeric RGD peptides in the αvβ3 integrin competitive binding assay were an order lower than those of original monomeric RGD peptides. Thus, the IC50 value of dimerizing peptide 6 was consistent with those described in previous studies.
# [2] = format: physicochemical
# Experimental: (§1) An experimental Log p value of [^125I]6 was −2.33 ± 0.04. The value was higher than that of the monomeric radioiodine-labeled RGD peptide [^125I]c[RGDf(4-I)K] (−3.04 ± 0.46) from our previous study.
# The partition coefficient of [^125I]6 was measured as described previously. The radioactivity in each phase was measured with an auto-well gamma counter. The partition coefficient was determined by calculating the ratio of 1-octanol to the buffer and was expressed as a common logarithm (log P).
# [3] = In vitro stability in PBS(−); format: physicochemical; conditions: PBS(−) pH 7.4, 37 °C, 24 h, 37 kBq tracer in 100 µL, RP-HPLC; mean ± SD for three samples
# Experimental: An in vitro stability experiment of [^125I]6 in PBS(−) (pH 7.4) solution was performed. After incubation at 37 °C for 24 h, 90.8 ± 0.7% (mean ± SD for three samples) of its radioactivity remained intact.
# To evaluate the stability of [^125I]6 in PBS(−), 10 µL of each tracer (37 kBq) was added to 90 µL of PBS(−) (pH 7.4), and the solutions were incubated at 37 °C for 24 h. After incubation, the samples were drawn, and the radioactivity was analyzed by RP-HPLC.
# [4] = system: U-87 MG tumor bearing mice; conditions: mouse
# Experimental: A comparison of the biodistribution experiments in U-87 MG tumor mice between [^125I]6 and [^125I]c[RGDf(4-I)K] is shown in Figure 3 and Table S1. [^125I]6 was highly accumulated in the tumor based on the results of the in vitro assay. […] (2.93 ± 0.08% ID/g). The accumulation of [^125I]6 in the liver and intestines also tended to be higher than that of [^125I]c[RGDf(4-I)K]. Meanwhile, it is known that the radioactive accumulation in the thyroid gland and stomach is an index of deiodination of radioiodine labeled probes.
# Experiments with animals were conducted in strict accordance with the Guidelines for the Care and Use of Laboratory Animals of Kanazawa University. The experimental protocols were approved by the Committee on Animal Experimentation of Kanazawa University. The animals were housed with free access to food and water at 23 °C with a 12 h alternating light/dark schedule. We used a U-87 MG cell line because it was reported that the U-87 MG highly expresses αvβ3 integrin [26]. […] The radioactivity counts of ^125I was determined with an auto-well gamma counter (ARC-7010, Hitachi, Ltd., Tokyo, Japan) and corrected for background radiation and physical decay during counting. […]
# Table S1. Biodistribution of radioactivity after intravenous injection of […]
# Expressed as % injected dose per gram. […]
# ‡ Expressed as % injected dose.
# Significance was determined by paired Student’s t test. […]
# [5] = cited from earlier work
# From the text: as §1
# αvβ3 integrin [6] = target: T1, αvβ3 integrin; experiment: αvβ3 integrin competitive binding assay with U-87 MG cells, radioligand [^125I]c[RGDy(3-I)V]; conditions: competitive inhibition of [^125I]c[RGDy(3-I)V] binding, mean ± SD for three independent experiments
# Experimental: The affinity of 6 and E[c(RGDfK)]2, a dimer RGD peptide without iodine, for αvβ3 integrin was determined via a competitive binding assay with U-87 MG cells. Binding of the radioligand [^125I]c[RGDy(3-I)V] to αvβ3 integrin was inhibited by 6 and E[c(RGDfK)]2 in a concentration-dependent manner.
# Binding affinities of synthesized peptides E[c(RGDfK)]2 and 6 for αvβ3 integrin were evaluated by competitive inhibition between the peptides and [^125I]c[RGDy(3-I)V], which was prepared by Fmoc solid-phase synthesis and following ^125I-labeling with chloramine-T method, to αvβ3 integrin according to a previously reported procedure. The peptides’ half maximal inhibitory concentration (IC50) values were calculated by curve fitting with nonlinear regression using GraphPad Prism 8.4.3 (GraphPad Software Inc., San Diego, CA, USA). Each data point is the average of four determinations, and IC50 values were expressed as mean ± standard deviation (SD) from three independent experiments.
# Figure 2 αvβ3 Integrin binding assay. Representative displacement curves of the competitive binding of [^125I]c[RGDy(3-I)V] to αvβ3 integrin on U-87 MG cells with E[c(RGDfK)]2 and 6. Error bars represent SD.
compound,measurement,setting,value
c[RGDf(4-I)K],IC50,αvβ3 integrin [1],23.2 ± 17.2 nM
E[c(RGDfK)]{[^125I]c[RGDf(4-I)K]}2 [[^125I]6],Log p (partition coefficient),[2],−2.33 ± 0.04
same,radioactivity remained intact,[3],90.8 ± 0.7%
same,in vivo deiodination (radioactivity in neck containing thyroid glands and stomach),[4],hardly occurred
[^125I]c[RGDf(4-I)K],Log p (partition coefficient),[5],−3.04 ± 0.46
"N=C(N)NCCC[C@@H]1NC(=O)[C@H](CCCCNC(=O)CC[C@H](N)C(=O)NCCCC[C@@H]2NC(=O)[C@@H](Cc3ccc(I)cc3)NC(=O)[C@H](CC(=O)O)NC(=O)CNC(=O)[C@H](CCCNC(=N)N)NC2=O)NC(=O)[C@@H](Cc2ccccc2)NC(=O)[C@H](CC(=O)O)NC(=O)CNC1=O [Compound 6, E[c(RGDfK)]{c[RGDf(4-I)K]}]",IC50,αvβ3 integrin [6],1.2 ± 0.5 nM
